Assay results reported in PubChem BioAssay AID292 (DTP/NCI, 2004).
Inconclusive results and toxic doses are left out.

System: B6C3F1 mice, ip Sarcoma M5076, median survival T/C
Assay: NCI In Vivo Anticancer Drug Screen. Data for tumor model Sarcoma M5076 (intraperitoneal) in B6C3F1 mice
Details: endpoint: median survival time, schedule: Q04DX004 (ip), higher = longer survival
Procedure, shortened: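 The readout is a ratio of survival in drug-treated animals to survival in animals given vehicle alone, taken in mice bearing a transplanted tumour line.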

[1] = dose: 25.0 mg/kg/injection, vehicle: saline with Tween-80
[2] = dose: 100.0 mg/kg/injection, vehicle: saline with Tween-80
[3] = dose: 50.0 mg/kg/injection, vehicle: saline with Tween-80
[4] = dose: 200.0 mg/kg/injection, vehicle: saline with Tween-80
[5] = dose: 400.0 mg/kg/injection, vehicle: saline with Tween-80
[6] = dose: 800.0 mg/kg/injection, vehicle: saline with Tween-80

O=c1[nH]cnc2c1nnn2C1OC(CO)C(O)C1O (centres undefined)
T/C (dose: 50.0 mg/kg/injection, vehicle: saline): 105 % of control
T/C (dose: 50.0 mg/kg/injection, vehicle: suspension in saline): 97 % of control
T/C (dose: 100.0 mg/kg/injection, vehicle: saline): 93 % of control
T/C (dose: 100.0 mg/kg/injection, vehicle: suspension in saline): 94 % of control
T/C (dose: 200.0 mg/kg/injection, vehicle: saline): 112 % of control
T/C (dose: 200.0 mg/kg/injection, vehicle: suspension in saline): 98 % of control
T/C (dose: 400.0 mg/kg/injection, vehicle: saline): 101 % of control
T/C (dose: 400.0 mg/kg/injection, vehicle: suspension in saline): 96 % of control
T/C (dose: 800.0 mg/kg/injection, vehicle: saline): 103 % of control
T/C (dose: 800.0 mg/kg/injection, vehicle: suspension in saline): 96 % of control

NS(=O)(=O)OCCCCCCCOS(N)(=O)=O
T/C [1]: 124 % of control
T/C [2]: 185 % of control

O=C(Nc1ccc(Cl)c(Cl)c1)C1C(=O)C(=O)N(c2ccc(Cl)c(Cl)c2)C1=O (centres undefined)
T/C (dose: 50.0 mg/kg/injection, vehicle: Klucel (hydroxypropylcellulose) (HPC)): 91 % of control
T/C (dose: 100.0 mg/kg/injection, vehicle: Klucel (hydroxypropylcellulose) (HPC)): 92 % of control
T/C (dose: 200.0 mg/kg/injection, vehicle: Klucel (hydroxypropylcellulose) (HPC)): 89 % of control

Cc1cc2c(=O)cc(-c3ccccc3)oc2c(C(=O)O)c1C
T/C (dose: 31.25 mg/kg/injection, vehicle: saline with Tween-80): 98 % of control
T/C (dose: 62.5 mg/kg/injection, vehicle: saline with Tween-80): 93 % of control
T/C (dose: 125.0 mg/kg/injection, vehicle: saline with Tween-80): 113 % of control

COc1ccc([C@@]23Oc4cc(OC)cc(OC)c4[C@]2(O)[C@H](O)[C@H](C(=O)N(C)C)[C@H]3c2ccccc2)cc1
T/C (dose: 1.0 mg/kg/injection, vehicle: Klucel (hydroxypropylcellulose) (HPC)): 97 % of control
T/C (dose: 2.0 mg/kg/injection, vehicle: Klucel (hydroxypropylcellulose) (HPC)): 105 % of control
T/C (dose: 4.0 mg/kg/injection, vehicle: Klucel (hydroxypropylcellulose) (HPC)): 109 % of control
T/C (dose: 8.0 mg/kg/injection, vehicle: Klucel (hydroxypropylcellulose) (HPC)): 123 % of control

COc1ccc(CCN2C(=O)C(=O)N(c3cccc4c(N5C(=O)C(=O)N(CCc6ccc(OC)c(OC)c6)C5=O)cccc34)C2=O)cc1OC
T/C (dose: 18.75 mg/kg/injection, vehicle: Klucel (hydroxypropylcellulose) (HPC)): 94 % of control
T/C (dose: 37.5 mg/kg/injection, vehicle: Klucel (hydroxypropylcellulose) (HPC)): 99 % of control
T/C (dose: 75.0 mg/kg/injection, vehicle: Klucel (hydroxypropylcellulose) (HPC)): 99 % of control
T/C (dose: 150.0 mg/kg/injection, vehicle: Klucel (hydroxypropylcellulose) (HPC)): 105 % of control

O=C1NC2(CN3CCC2CC3)C(=O)N1CN(Cc1ccccc1)c1ccccc1 (centres undefined)
T/C [3]: 97 % of control
T/C [2]: 102 % of control
T/C [4]: 93 % of control
T/C [5]: 87 % of control
T/C [6]: 90 % of control

CO[C@@]12[C@@H]3N[C@@H]3CN1C1=C(C(=O)C(NCC3CCCO3)=C(C)C1=O)[C@@H]2COC(N)=O (some centres undefined)
T/C (dose: 1.5 mg/kg/injection, vehicle: distilled water + Tween-80): 117 % of control
T/C (dose: 3.0 mg/kg/injection, vehicle: distilled water + Tween-80): 118 % of control
T/C (dose: 12.0 mg/kg/injection, vehicle: distilled water + Tween-80): 160 % of control
T/C (dose: 24.0 mg/kg/injection, vehicle: distilled water + Tween-80): 191 % of control

Nc1cc(=O)n(Cc2ccco2)c(=S)[nH]1
T/C [3]: 106 % of control
T/C [2]: 97 % of control
T/C [4]: 106 % of control
T/C [5]: 107 % of control
T/C [6]: 97 % of control

S=C(NCNC(=S)c1ccncc1)c1ccncc1
T/C [1]: 96 % of control
T/C [3]: 99 % of control
T/C [2]: 92 % of control
T/C [4]: 102 % of control
T/C [5]: 107 % of control

NC(=O)C1=CC2C3C=CC2(O)C(=O)OC3O1 (centres undefined)
T/C (dose: 7.5 mg/kg/injection, vehicle: Klucel (hydroxypropylcellulose) (HPC)): 98 % of control
T/C (dose: 15.0 mg/kg/injection, vehicle: Klucel (hydroxypropylcellulose) (HPC)): 95 % of control
T/C (dose: 30.0 mg/kg/injection, vehicle: Klucel (hydroxypropylcellulose) (HPC)): 101 % of control
T/C (dose: 60.0 mg/kg/injection, vehicle: Klucel (hydroxypropylcellulose) (HPC)): 106 % of control
